Source: KR20130112248A, “피라졸로피리미딘 유도체 화합물, 이를 포함하는 산화질소 생성 억제용 조성물 및 뇌신경 질환 예방 및 치료용 약학적 조성물” (한국과학기술연구원, priority 2012, dated 2013)

What follows are compounds tested on NO production in BV-2 cells [NO 생성; BV-2 세포] (assay: Nitric oxide (NO) quantification (nitrite, Griess reaction) in LPS-activated BV-2 cells). Conditions: 20 μM, LPS 0.2 ㎍/mL, 24 h co-treatment, nitrite by Griess at 540 nm.
Assay type: cell-based

Row | Compound | NO (% of LPS)
1 | 1-t-뷰틸-4-(1-하이드록시에틸)아미노-6-(메틸티오)피라졸로[3,4-d]피리미딘 [화합물 17d] | 93±2 % of LPS

Same assay, conditions: 20 μM, LPS 0.2 ㎍/mL, 24 h co-treatment, nitrite by Griess at 540 nm, 1440 min

Row | Compound | NO (% of LPS)
2 | CSc1nc(NCc2ccccn2)c2cn[nH]c2n1 [6h, 4-(피리딘-2-일)메틸아미노-6-(메틸티오)피라졸로[3,4-d]피리미딘] | 97±5 % of LPS

Same assay, conditions: Mus musculus, BV-2, 24 h, 20 μM, LPS 0.2 ㎍/mL, 24 h co-treatment, nitrite by Griess at 540 nm

Row | Compound | activity at 20 µM [%]
3 | CSc1nc(Cl)c2cnn(C)c2n1 [5a, 1-메틸-4-클롤로-6-(메틸티오)피라졸로[3,4-d]피리미딘] | 51 ± 2
4 | COc1ccc(CNc2nc(SC)nc3c2cnn3Cc2ccccc2)cc1 [화합물 16g, 1-벤질-4-(4-메톡시벤질)아미노-6-(메틸티오)피라졸로[3,4-d]피리미딘] | 37 ± 6
5 | CSc1nc(NCc2ccccc2Cl)c2cnn(-c3ccc(F)cc3)c2n1 [화합물 20a, N-(2-클로로벤질)-1-(4-플루오로페닐)-6-(메틸티오)-1H-피라졸로[3,4-d]피리미딘-4-아민] | 48 ± 17.2
6 | CSc1nc(NCc2ccccc2C)c2cn[nH]c2n1 [6r, 4-(2-메틸벤질)아미노-6-(메틸티오)피라졸로[3,4-d]피리미딘] | 64 ± 3
7 | C=CCNc1nc(SC)nc2c1cnn2-c1ccccc1 [화합물 15f, 1-페닐-4-알릴아미노-6-(메틸티오)피라졸로[3,4-d]피리미딘] | 60 ± 17
8 | CSc1nc(NCCc2ccccc2)c2cnn(C)c2n1 [12g, 1-메틸-4-(2-페닐에틸)아미노-6-(메틸티오)피라졸로[3,4-d]피리미딘] | 92 ± 1
9 | C=CCn1ncc2c(NCc3ccc(OC)cc3)nc(SC)nc21 [화합물 13m, N-(4-메톡시벤질)-1-알릴-6-(메틸티오)-1H-피라졸로[3,4-d]피리미딘-4-아민] | 8.6 ± 2.7
10 | C=CCn1ncc2c(Cl)nc(SC)nc21 [5b, 1-알릴-4-클로로-6-(메틸티오)피라졸로[3,4-d]피리미딘] | 63 ± 8
11 | Cc1ccccc1CNc1nc(S(C)(=O)=O)nc2c1cnn2-c1ccc(F)cc1 [화합물 23k, N-(2-메틸벤질)-1-(4-플루오로페닐)-6-(메틸설포닐)-1H-피라졸로[3,4-d]피리미딘-4-아민] | 35 ± 4.6
12 | CSc1nc(NCc2ccc(C)cc2)c2cnn(-c3ccccc3)c2n1 [화합물 15p, 1-페닐-4-(4-메틸벤질)아미노-6-(메틸티오)피라졸로[3,4-d]피리미딘] | 71 ± 5
13 | CSc1nc(NCc2ccccc2Cl)c2cnn(Cc3ccccc3)c2n1 [화합물 16zi, N-(2-클로로벤질)-1-벤질-6-(메틸티오)-1H-피라졸로[3,4-d]피리미딘-4-아민] | 39 ± 3.1
14 | COc1cccc(CNc2nc(SC)nc3c2cnn3C(C)(C)C)c1 [화합물 17k, N-(3-메톡시벤질)-1-t-뷰틸-6-(methylthio)-1H-피라졸로[3,4-d]피리미딘-4-아민] | 51 ± 5
15 | CSc1nc(NCc2ccccc2C)c2cnn(-c3ccccc3)c2n1 [화합물 15o, 1-페닐-4-(2-메틸벤질)아미노-6-(메틸티오)피라졸로[3,4-d]피리미딘] | 57 ± 1
16 | COc1ccccc1CNc1nc(SC)nc2c1cnn2CCO [화합물 27i, 2-(4-(2-메톡시벤질아미노)-6-(메틸티오)-1H-피라졸로[3,4-d]피리미딘-1-일)에탄올] | 83.5 ± 3.1
17 | CC(Nc1nc(N(C)C)nc2c1cnn2Cc1ccccc1)c1ccccc1 (stereo not shown) [화합물 24g, 1-벤질-N6,N6-디메틸-N4-(1-페닐에틸)-1H-피라졸로[3,4-d]피리미딘-4,6-디아민] | 63 ± 2.6
18 | COc1cccc(CCn2ncc3c(NCc4cccc(OC)c4)nc(SC)nc32)c1 [화합물 18d, N-(3-메톡시벤질)-1-(3-메톡시펜에틸)-6-(메틸티오)-1H-피라졸로[3,4-d]피리미딘-4-아민] | 39 ± 4.8
19 | COc1ccc(CNc2nc(SC)nc3c2cnn3-c2ccc(F)cc2)cc1 [화합물 20e, N-(4-메톡시벤질)-1-(4-플루오로페닐)-6-(메틸티오)-1H-피라졸로[3,4-d]피리미딘-4-아민] | 235
20 | COc1ccc(CNc2nc(SC)nc3c2cnn3-c2ccc(C)cc2)cc1 [화합물 21e, N-(4-메톡시벤질)-6-(메틸티오)-1-p-톨릴-1H-피라졸로[3,4-d]피리미딘-4-아민] | 39 ± 3
21 | CSc1nc(NCCc2ccccc2)c2cnn(C(C)(C)C)c2n1 [화합물 17h, 1-t-뷰틸-4-(2-페닐에틸)아미노-6-(메틸티오)피라졸로[3,4-d]피리미딘] | 61 ± 1
22 | CSc1nc(NC(C)(C)CO)c2cnn(C)c2n1 [12b, 1-메틸-4-[(1-하이드록시-2,2-다이메틸)에틸]아미노-6-(메틸티오)피라졸로[3,4-d]피리미딘] | 90 ± 7
23 | CSc1nc(NCc2ccccc2)c2c(-c3ccccc3)nn(-c3ccccc3)c2n1 [화합물 31a, 1-페닐-3-페닐-4-벤질아미노-6-(메틸티오)피라졸로[3,4-d]피리미딘] | 68 ± 28
24 | CSc1nc(Cl)c2cnn(CCNC(=O)OC(C)(C)C)c2n1 [5d, 1-[N-t-Boc-(2-아미노에틸)]-4-클로로-6-(m메틸티오)피라졸로[3,4-d]피리미딘] | 48 ± 4
25 | CSc1nc(NCc2ccccc2C)c2cnn(-c3ccc(C)cc3)c2n1 [화합물 21c, N-(2-메틸벤질)-6-(메틸티오)-1-p-톨릴-1H-피라졸로[3,4-d]피리미딘-4-아민] | 47 ± 6.8
26 | C=CCNc1nc(SC)nc2c1cnn2Cc1ccccc1 [화합물 16h, 1-벤질-4-알릴아미노-6-(메틸티오)피라졸로[3,4-d]피리미딘] | 66 ± 9
27 | CSc1nc(NCc2ccc(C)cc2)c2cn[nH]c2n1 [6q, 4-(4-메틸벤질)아미노-6-(메틸티오)피라졸로[3,4-d]피리미딘] | 90 ± 15
28 | CSc1nc(Cl)c2c(-c3ccccc3)nn(C(C)(C)C)c2n1 [화합물 30c, 1-t-뷰틸-3-페닐-4-클로로-6-(메틸티오)피라졸로[3,4-d]피리미딘] | 21 ± 22
29 | CCCCNc1nc(SC)nc2c1cnn2C(C)(C)C [화합물 17l, 1-t-뷰틸-N-뷰틸-6-(메틸티오)-1H-피라졸로[3,4-d]피리미딘-4-아민] | 82 ± 9.5
30 | COc1cccc(CCn2ncc3c(NCc4ccccc4C)nc(SC)nc32)c1 [화합물 18c, N-(2-메틸벤질)-1-(3-메톡시펜에틸)-6-(메틸티오)-1H-피라졸로[3,4-d]피리미딘-4-아민] | 37 ± 7.9

Row | Compound | activity at 20 µM [%]
31 | COc1nc(SC)nc2c1cnn2CCO [화합물 27f, 2-(4-메톡시-6-(메틸티오)-1H-피라졸로[3,4-d]피리미딘-1-일)에탄올] | 86 ± 3
32 | C=CCNc1nc(SC)nc2c1cnn2CCc1ccccc1OC [화합물 19f, 1-(2-메톡시펜에틸)-N-알릴-6-(메틸티오)-1H-피라졸로[3,4-d]피리미딘-4-아민] | 75 ± 8.7
33 | COc1ccccc1CNc1nc(S(C)(=O)=O)nc2c1cnn2-c1ccccc1 [화합물 23c, N-(2-메톡시벤질)-6-(메틸설포닐)-1-페닐-1H-피라졸로[3,4-d]피리미딘-4-아민] | 41 ± 2.3
34 | CSc1nc(NCc2ccccc2C)c2cnn(-c3ccc(F)cc3)c2n1 [화합물 20c, N-(2-메틸벤질)-1-(4-프루오로페닐)-6-(메틸티오)-1H-피라졸로[3,4-d]피리미딘-4-아민] | 47 ± 8
35 | CSc1nc(NCCc2ccccc2)c2cn[nH]c2n1 [6c, 4-펜에틸아미노-6-(메틸티오)피라졸로[3,4-d]피리미딘] | 91 ± 4
36 | CSc1nc(N(CCO)CCO)c2cn[nH]c2n1 [6o, 4-(디-2-하이드로에틸)아미노-6-(메틸티오)피라졸로[3,4-d]피리미딘] | 106 ± 10
37 | COc1ccccc1CNc1nc(SC)nc2[nH]ncc12 [6v, 4-(2-메톡시벤질)아미노-6-(메틸티오)피라졸로[3,4-d]피리미딘] | 36 ± 7
38 | COc1ccc(CNc2nc(SC)nc3c2cnn3CCO)cc1 [화합물 27e, 1-(1-하이드록시에틸)-4-(4-메톡시벤질)아미노-6-(메틸티오)피라졸로[3,4-d]피리미딘] | 56 ± 6
39 | CSc1nc(NCc2ccccc2Cl)c2cnn(CCO)c2n1 [화합물 27h, 2-(4-(2-클로로벤질아미노)-6-(메틸티오)-1H-피라졸로[3,4-d]피리미딘-1-일)에탄올] | 87.4 ± 1.2
40 | COc1ccc(CNc2nc(SC)nc3c2cnn3C)cc1 [12h, 1-메틸-4-(4-메톡시벤질)아미노-6-(메틸티오)피라졸로[3,4-d]피리미딘] | 33 ± 10
41 | C=CCNc1nc(SC)nc2c1cnn2CCO [화합물 27c, 1-(1-하이드록시에틸)-4-알릴아미노-6-(메틸티오)피라졸로[3,4-d]피리미딘] | 98 ± 6
42 | COc1ccc(Sc2nc(SC)nc3c2cnn3Cc2ccccc2)cc1 [화합물 16q, 4-(4-메톡시페닐티오)-1-벤질-6-(메틸티오)-1H-피라졸로[3,4-d]피리미딘] | 40 ± 1.8
43 | CSc1nc(N[C@H](C)c2ccccc2)c2cnn(-c3ccccc3)c2n1 [화합물 15h, (R)-1-페닐-4-(1-페닐에틸)아미노-6-(메틸티오)피라졸로[3,4-d]피리미딘] | 29 ± 4.6
44 | COc1ccc([C@H](C)Nc2nc(S(C)(=O)=O)nc3c2cnn3Cc2ccccc2)cc1 [화합물 23v, 1-벤질-N-((S)-1-(4-메톡시페닐)에틸)-6-(메틸설포닐)-1H-피라졸로[3,4-d]피리미딘-4-아민] | 59 ± 3
45 | CSc1nc(NCc2ccccc2C)c2cnn(CCO)c2n1 [화합물 27g, 2-(4-(2-메틸벤질아미노)-6-(메틸티오)-1H-피라졸로[3,4-d]피리미딘-1-일)에탄올] | 82 ± 2.5
46 | CSc1nc(N2CCCCC2)c2cnn(-c3ccccc3)c2n1 [화합물 15m, 1-페닐-4-피페리디노-6-(메틸티오)피라졸로[3,4-d]피리미딘] | 92 ± 4
47 | COc1cccc(CNc2nc(SC)nc3c2cnn3-c2ccc(F)cc2)c1 [화합물 20d, N-(3-메톡시벤질)-1-(4-플루오로페닐)-6-(메틸티오)-1H-피라졸로[3,4-d]피리미딘-4-아민] | 43 ± 5.9
48 | COc1ccccc1CNc1nc(SC)nc2c1cnn2C(C)(C)C [화합물 17i, N-(2-메톡시벤질)-1-t-뷰틸-6-(methylthio)-1H-피라졸로[3,4-d]피리미딘-4-아민] | 45 ± 5.9
49 | CSc1nc(N2CCN(C)CC2)c2cnn(-c3ccccc3)c2n1 [화합물 15u, 1-페닐-4-(4-메틸)피페라지노-6-(메틸티오)피라졸로[3,4-d]피리미딘] | 64
50 | CCCCNc1nc(SC)nc2[nH]ncc12 [6e, 4-n-뷰틸아미노-6-(메틸티오)피라졸로[3,4-d]피리미딘] | 83 ± 9
51 | CSc1nc(NCCc2ccccc2)c2c(-c3ccccc3)nn(-c3ccccc3)c2n1 [화합물 31e, 1-페닐-3-페닐-4-(2-페닐에틸)아미노-6-(메틸티오)피라졸로[3,4-d]피리미딘] | 105 ± 10
52 | CSc1nc(NCc2ccc(Cl)cc2)c2cnn(Cc3ccccc3)c2n1 [화합물 16zd, N-(4-클로로벤질)-1-벤질-6-(메틸티오)-1H-피라졸로[3,4-d]피리미딘-4-아민] | 46 ± 1.9
53 | CSc1nc(NC2CCCCC2)c2cnn(-c3ccccc3)c2n1 [화합물 15q, 1-페닐-4-사이클로헥실아미노-6-(메틸티오)피라졸로[3,4-d]피리미딘] | 54 ± 1
54 | C=CCNc1nc(SC)nc2c1cnn2C(C)(C)C [화합물 17f, 1-t-뷰틸-4-알릴아미노-6-(메틸티오)피라졸로[3,4-d]피리미딘] | 89 ± 8
55 | CSc1nc2c(cnn2-c2ccccc2)c(=S)[nH]1 [9b, 1-페닐-6-(메틸티오)피라졸로[3,4-d]피리미딘-4-티온] | 94 ± 7
56 | COCCNc1nc(NC(C)c2ccccc2)c2cnn(Cc3ccccc3)c2n1 (stereo not shown) [화합물 24h, 1-벤질-N6-(2-메톡시에틸)-N4-(1-페닐에틸)-1H-피라졸로[3,4-d]피리미딘-4,6-디아민] | 44 ± 4.2
57 | COc1cccc(CNc2nc(SC)nc3c2cnn3CCc2ccccc2OC)c1 [화합물 19a, 1-(2-메톡시펜에틸)-N-(3-메톡시벤질)-6-(메틸티오)-1H-피라졸로[3,4-d]피리미딘-4-아민] | 32 ± 1.1

Same assay, conditions: Mus musculus, BV-2, 24 h, 30 μM, LPS 0.2 ㎍/mL, 24 h co-treatment, nitrite by Griess at 540 nm

Row | Compound | activity at 30 µM [%]
58 | CSc1nc(Cl)c2cn[nH]c2n1 [compound 4, 4-클로로-6-(메틸티오)피라졸로[3,4-d]피리미딘] | 19 ± 4.1
